# Reference: ChEMBL document CHEMBL1201862, “PubChem BioAssay data set” (2004)
#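 In this assay, cells in 96-well plates receive the compound at five concentrations for 48 hours. Endpoints are linearly interpolated between the surrounding concentrations. At the GI50, growth is halved.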 Calls of active or inactive are those of the source. No stated cut-off is given here; in the data, active = GI50 up to about 1.1 µM and inactive = higher.
# Assays:
# Test in all cases: inhibition of tumour cell growth, NCI panel, 48 h
# NCI-H460 = tested on: NCI-H460
# ACHN = tested on: ACHN
# PC-3 = tested on: PC-3
# IGROV-1 = tested on: IGROV-1
# MDA-MB-435 = tested on: MDA-MB-435
# OVCAR-4 = tested on: OVCAR-4
# UACC-257 = tested on: UACC-257
# MCF7 = tested on: MCF7
# HCC 2998 = tested on: HCC 2998
# HCT-116 = tested on: HCT-116
# TK-10 = tested on: TK-10
# SNB-75 = tested on: SNB-75
# HOP-62 = tested on: HOP-62
# SF-539 = tested on: SF-539
# SNB-19 = tested on: SNB-19
# HCT-15 = tested on: HCT-15
# NCI-H226 = tested on: NCI-H226
# A549 = tested on: A549
# SN12C = tested on: SN12C
# DU-145 = tested on: DU-145
# SK-MEL-28 = tested on: SK-MEL-28
# OVCAR-8 = tested on: OVCAR-8
# NCI-H522 = tested on: NCI-H522
# A498 = tested on: A498
# M14 = tested on: M14
# SK-MEL-5 = tested on: SK-MEL-5
# MDA-N = tested on: MDA-N
# UACC-62 = tested on: UACC-62
# SF-295 = tested on: SF-295
# SK-MEL-2 = tested on: SK-MEL-2
# HT-29 = tested on: HT-29
# OVCAR-3 = tested on: OVCAR-3
# KM12 = tested on: KM12
# MDA-MB-231 = tested on: MDA-MB-231
# CAKI-1 = tested on: CAKI-1
# MOLT-4 = tested on: MOLT-4
# LOX IMVI = tested on: LOX IMVI
# SR = tested on: SR
# UO-31 = tested on: UO-31
# SK-OV-3 = tested on: SK-OV-3
# Malme-3M = tested on: Malme-3M
# RPMI-8226 = tested on: RPMI-8226
# U-251 = tested on: U-251
# K562 = tested on: K562
# HOP-92 = tested on: HOP-92
# SW-620 = tested on: SW-620
# SF-268 = tested on: SF-268
# EKVX = tested on: EKVX
# T47D = tested on: T47D
# CCRF-CEM = tested on: CCRF-CEM
# COLO 205 = tested on: COLO 205
# OVCAR-5 = tested on: OVCAR-5
# Hs-578T = tested on: Hs-578T
# NCI-H23 = tested on: NCI-H23
# 786-0 = tested on: 786-0
# BT-549 = tested on: BT-549
# RXF 393 = tested on: RXF 393
# HL-60 = tested on: HL-60
# NCI/ADR-RES = tested on: NCI/ADR-RES
smiles,measurement,setting,value
CSc1ncnc2c1cnn2Cc1cn(CCCCO)nn1,GI50,NCI-H460,> 100 µM (inactive)
same,GI50,ACHN,> 100 µM (inactive)
same,GI50,PC-3,> 100 µM (inactive)
same,GI50,IGROV-1,> 100 µM (inactive)
same,GI50,MDA-MB-435,> 100 µM (inactive)
same,GI50,OVCAR-4,> 100 µM (inactive)
same,GI50,UACC-257,> 100 µM (inactive)
same,GI50,MCF7,> 100 µM (inactive)
same,GI50,HCC 2998,> 100 µM (inactive)
same,GI50,HCT-116,> 100 µM (inactive)
same,GI50,TK-10,> 100 µM (inactive)
same,GI50,SNB-75,> 100 µM (inactive)
same,GI50,HOP-62,> 100 µM (inactive)
same,GI50,SF-539,> 100 µM (inactive)
same,GI50,SNB-19,> 100 µM (inactive)
same,GI50,HCT-15,> 100 µM
same,GI50,NCI-H226,> 100 µM (inactive)
same,GI50,A549,> 100 µM (inactive)
same,GI50,SN12C,> 100 µM (inactive)
same,GI50,DU-145,> 100 µM (inactive)
same,GI50,SK-MEL-28,> 100 µM (inactive)
same,GI50,OVCAR-8,> 100 µM (inactive)
same,GI50,NCI-H522,> 100 µM (inactive)
same,GI50,A498,> 100 µM (inactive)
same,GI50,M14,> 100 µM (inactive)
same,GI50,SK-MEL-5,> 100 µM (inactive)
same,GI50,MDA-N,> 100 µM (inactive)
same,GI50,UACC-62,> 100 µM (inactive)
same,GI50,SF-295,> 100 µM (inactive)
same,GI50,SK-MEL-2,> 100 µM (inactive)
same,GI50,HT-29,> 100 µM (inactive)
same,GI50,OVCAR-3,> 100 µM (inactive)
same,GI50,KM12,> 100 µM (inactive)
same,GI50,MDA-MB-231,> 100 µM (inactive)
same,GI50,CAKI-1,> 100 µM (inactive)
same,GI50,MOLT-4,> 100 µM (inactive)
same,GI50,LOX IMVI,> 100 µM (inactive)
same,GI50,SR,> 100 µM (inactive)
same,GI50,UO-31,> 100 µM (inactive)
same,GI50,SK-OV-3,> 100 µM (inactive)
same,GI50,Malme-3M,> 100 µM (inactive)
same,GI50,RPMI-8226,> 100 µM (inactive)
same,GI50,U-251,> 100 µM (inactive)
same,GI50,K562,> 100 µM (inactive)
same,GI50,HOP-92,> 100 µM (inactive)
same,GI50,SW-620,> 100 µM (inactive)
same,GI50,SF-268,> 100 µM (inactive)
same,GI50,EKVX,> 100 µM (inactive)
same,GI50,T47D,> 100 µM (inactive)
same,GI50,CCRF-CEM,> 100 µM (inactive)
same,GI50,COLO 205,> 100 µM (inactive)
same,GI50,OVCAR-5,> 100 µM (inactive)
same,GI50,Hs-578T,71.1 µM (inactive)
same,GI50,NCI-H23,> 100 µM (inactive)
same,GI50,786-0,> 100 µM (inactive)
same,GI50,BT-549,> 100 µM (inactive)
same,GI50,RXF 393,> 100 µM (inactive)
CCNC(=O)Nc1cccc(C)n1,GI50,NCI-H460,> 100 µM (inactive)
same,GI50,ACHN,> 100 µM (inactive)
same,GI50,PC-3,> 100 µM (inactive)
same,GI50,IGROV-1,> 100 µM (inactive)
same,GI50,MDA-MB-435,> 100 µM (inactive)
same,GI50,OVCAR-4,> 100 µM (inactive)
same,GI50,UACC-257,> 100 µM (inactive)
same,GI50,MCF7,> 100 µM (inactive)
same,GI50,HCC 2998,> 100 µM (inactive)
same,GI50,HCT-116,> 100 µM (inactive)
same,GI50,TK-10,> 100 µM (inactive)
same,GI50,SNB-75,68.9 µM (inactive)
same,GI50,HOP-62,91.4 µM (inactive)
same,GI50,SF-539,> 100 µM (inactive)
same,GI50,SNB-19,> 100 µM (inactive)
same,GI50,NCI-H226,> 100 µM (inactive)
same,GI50,A549,> 100 µM (inactive)
same,GI50,SN12C,> 100 µM (inactive)
same,GI50,DU-145,> 100 µM (inactive)
same,GI50,SK-MEL-28,> 100 µM (inactive)
same,GI50,OVCAR-8,> 100 µM (inactive)
same,GI50,NCI-H522,> 100 µM (inactive)
same,GI50,A498,> 100 µM (inactive)
same,GI50,M14,> 100 µM (inactive)
same,GI50,SK-MEL-5,> 100 µM (inactive)
same,GI50,MDA-N,> 100 µM (inactive)
same,GI50,UACC-62,99.1 µM (inactive)
same,GI50,SF-295,> 100 µM (inactive)
same,GI50,HT-29,> 100 µM (inactive)
same,GI50,OVCAR-3,> 100 µM (inactive)
same,GI50,KM12,> 100 µM (inactive)
same,GI50,MDA-MB-231,> 100 µM (inactive)
same,GI50,CAKI-1,> 100 µM (inactive)
same,GI50,MOLT-4,> 100 µM (inactive)
same,GI50,SR,> 100 µM (inactive)
same,GI50,UO-31,> 100 µM (inactive)
same,GI50,SK-OV-3,> 100 µM (inactive)
same,GI50,Malme-3M,> 100 µM (inactive)
same,GI50,HL-60,67.8 µM (inactive)
same,GI50,U-251,> 100 µM (inactive)
same,GI50,K562,> 100 µM (inactive)
same,GI50,HOP-92,> 100 µM (inactive)
same,GI50,SW-620,> 100 µM (inactive)
same,GI50,SF-268,> 100 µM (inactive)
same,GI50,EKVX,15.7 µM (inactive)
same,GI50,T47D,> 100 µM (inactive)
same,GI50,CCRF-CEM,> 100 µM (inactive)
same,GI50,COLO 205,> 100 µM (inactive)
same,GI50,OVCAR-5,> 100 µM (inactive)
same,GI50,Hs-578T,> 100 µM (inactive)
same,GI50,NCI-H23,> 100 µM (inactive)
same,GI50,786-0,> 100 µM (inactive)
same,GI50,BT-549,> 100 µM (inactive)
same,GI50,RXF 393,> 100 µM (inactive)
C[C@]12CC[C@@H]3c4cc(I)c(O)cc4CC[C@H]3[C@@H]1CC[C@@H]2O,GI50,NCI-H460,3.64 µM (inactive)
same,GI50,ACHN,8.75 µM (inactive)
same,GI50,PC-3,10.7 µM (inactive)
same,GI50,IGROV-1,5.93 µM (inactive)
same,GI50,OVCAR-4,16.5 µM (inactive)
same,GI50,UACC-257,8.61 µM (inactive)
same,GI50,MCF7,5.87 µM (inactive)
same,GI50,NCI/ADR-RES,6.55 µM (inactive)
same,GI50,HCC 2998,8.81 µM (inactive)
same,GI50,TK-10,9.68 µM (inactive)
same,GI50,SNB-75,3.17 µM (inactive)
same,GI50,SNB-19,7.33 µM (inactive)
same,GI50,HCT-15,2.48 µM
same,GI50,NCI-H226,15.5 µM (inactive)
same,GI50,A549,6.32 µM (inactive)
same,GI50,SK-MEL-28,7.96 µM (inactive)
same,GI50,OVCAR-8,6.52 µM (inactive)
same,GI50,NCI-H522,3.72 µM (inactive)
same,GI50,A498,8.43 µM (inactive)
same,GI50,M14,4.09 µM (inactive)
same,GI50,SK-MEL-5,3.18 µM (inactive)
same,GI50,MDA-N,1.74 µM (inactive)
same,GI50,SF-295,3.48 µM (inactive)
same,GI50,SK-MEL-2,3.02 µM (inactive)
same,GI50,HT-29,17.3 µM (inactive)
same,GI50,OVCAR-3,3.43 µM (inactive)
same,GI50,KM12,3.27 µM (inactive)
same,GI50,MDA-MB-231,5.25 µM (inactive)
same,GI50,CAKI-1,8.63 µM (inactive)
same,GI50,MOLT-4,5.42 µM (inactive)
same,GI50,LOX IMVI,4.17 µM (inactive)
same,GI50,SR,3.1 µM (inactive)
same,GI50,UO-31,5.74 µM (inactive)
same,GI50,SK-OV-3,4.25 µM (inactive)
same,GI50,Malme-3M,9.89 µM (inactive)
same,GI50,HL-60,5.65 µM (inactive)
same,GI50,RPMI-8226,7.74 µM (inactive)
same,GI50,U-251,4.48 µM (inactive)
same,GI50,K562,3.52 µM (inactive)
same,GI50,HOP-92,10.3 µM (inactive)
same,GI50,SW-620,3.58 µM (inactive)
same,GI50,SF-268,9.38 µM (inactive)
same,GI50,EKVX,2.65 µM (inactive)
same,GI50,T47D,8.55 µM (inactive)
same,GI50,CCRF-CEM,3.15 µM (inactive)
same,GI50,COLO 205,18.5 µM (inactive)
same,GI50,OVCAR-5,12.7 µM (inactive)
same,GI50,Hs-578T,2.32 µM (inactive)
same,GI50,NCI-H23,9.89 µM (inactive)
same,GI50,786-0,5.06 µM (inactive)
same,GI50,BT-549,11.6 µM (inactive)
same,GI50,RXF 393,6.07 µM (inactive)
